This is an account of results in patent US8629110B2, “Kv1.3 channel blocking substances for the treatment of diseases associated with intimal hyperplasia” (priority 2008, dated 2014).

The target in the first data set is T1, Kv1.3 channels (Mus musculus, UniProt P16390).
T1 construct: endogenous in cells; host or cells: freshly dissociated and cultured VSMCs from femoral arteries of BPN mice
T1 sequence (P16390 whole entry): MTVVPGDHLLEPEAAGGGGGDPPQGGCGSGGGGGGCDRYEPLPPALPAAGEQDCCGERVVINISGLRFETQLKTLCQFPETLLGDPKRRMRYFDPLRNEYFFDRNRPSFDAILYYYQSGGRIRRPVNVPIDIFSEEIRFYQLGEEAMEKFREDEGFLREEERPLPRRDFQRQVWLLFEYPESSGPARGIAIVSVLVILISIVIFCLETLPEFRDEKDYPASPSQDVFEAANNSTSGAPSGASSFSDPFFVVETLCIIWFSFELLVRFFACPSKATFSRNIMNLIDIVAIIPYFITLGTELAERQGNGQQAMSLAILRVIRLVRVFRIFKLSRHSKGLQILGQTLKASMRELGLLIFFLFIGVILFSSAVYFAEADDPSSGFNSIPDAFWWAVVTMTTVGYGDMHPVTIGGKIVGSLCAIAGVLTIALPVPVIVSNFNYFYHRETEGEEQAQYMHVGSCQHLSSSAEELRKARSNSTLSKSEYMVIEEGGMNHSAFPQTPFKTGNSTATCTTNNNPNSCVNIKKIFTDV
The data set is described as follows: Whole-cell patch-clamp of Kv currents in contractile and cultured VSMCs of mouse femoral arteries. The settings on record: VSMCs in culture; 10 nM; pulse to +40 mV. In kind it is cell-based.
Protocol: To isolate the VSMCs (model of cells in contractile phenotype), the animals were sacrificed by decapitation after anesthesia with isoflurane (5% at 2.5 I O2 min^−1).
To obtain the VSMCs in culture (in vitro model of proliferative phenotype), small fragments (0.5 mm) of femoral arteries free of endothelium and connective tissue were placed in 35 mm Petri culture dishes covered with 2% gelatin (Type B, Sigma) in a DMEM culture medium with 20% of fetal bovine serum, 100 U/ml penicillin, 100 U/ml streptomycin and 2 mM L-glutamine at 37° C. in a 5% CO2 atmosphere. The migration and proliferation of the VSMCs of these explants was clear at 6-10 days, but the explants were maintained until the single layer of VSMC was confluent. At this time, by means of mechanical scraping with a rubber spatula the cells were shed and seeded in a new culture dish at ⅓ of their original density. The VSMCs were thus subjected to several passes (3-4) without showing apparent morphological changes.
The drugs were prepared at the final concentrations indicated in the saline solution of the bath following the supplier's instructions and were applied to the cells for a period of 1-2 minutes. The currents were recorded before applying the drug (control) and in the presence of the drug, and the percentage of reduction in the amplitude of the currents induced by different blockers was calculated.
As for Margatoxin, the “current blocked, of the Kv current” value was 58.15±4.54.

The data set is the same for the next values; noted with them: contractile VSMCs; 10 nM; pulse to +40 mV.
Turning to Margatoxin, the “current blocked, of the Kv current” value amounted to 10.6±2.03.

The test system of another data set is VSMCs of the human uterine artery. The data set is described as follows: Proliferation of VSMCs in culture (BrdU incorporation). In kind it is cell-based. Conditions: 10 nM; 24 hours; medium with 5% serum. The procedure:
FIG. 8. Effect of the Kv1.3 channel blockers on the proliferation of the VSMCs of the human uterine artery. […] Again, these experiments were conducted in cells in control medium and cells in which the margatoxin or PAP was added to the medium.
For the proliferation studies, the fraction of cells incorporating 5-bromo-2′-deoxyuridine (BrdU) was determined. BrdU is a thymidine analog which can be incorporated in its place for the synthesis phase of the cell cycle. The cells incorporating BrdU can be detected by means of observation under a fluorescence microscope upon using a monoclonal antibody against this molecule and a secondary antibody conjugated with a fluorochrome. The assay was performed with a commercial kit (5-Bromo-2′-deoxy-uridine labeling and Detection Kit I; Roche Applied Science, Germany). The human uterine artery smooth muscle cells were grown for 48 hours in glass coverslips 12 mm in diameter in DMEM medium supplemented with serum and antibiotics as has been previously described, until reaching a confluence close to 50%. […] To quantify the results, the number of cells positive for BrdU with respect to the total number of cells in the field (which is determined by labeling the nuclei with the DAPI fluorescent dye) is counted in 10-20 fields in each experiment.
On the technique in general: Incorporation of labelled thymidine or its analogues reports DNA synthesis.
Take Margatoxin: the “fraction of cells labeled with BrdU (proliferation)” value is listed as “a lower number of labeled nuclei is observed”.

System in the next data set: not listed separately
The data set can be described thus: Swine stent model: pharmacokinetics (blood and arterial tissue levels). In kind it is in vivo, pigs. Conditions: pig, in vivo, 200 ug per stent; at 4 days; below the limit of detection. The procedure: The total weight of the polymer with the drug is about 500 μg and the drug:polymer ratio is 30%. The stents are packed individually, coded with a bar code (to do a double blind experiment) and sterilized with ethylene oxide.
36 stents (12 with the polymer alone, 12 with PAP and 12 with ShK) are implanted in 12 young pigs (25-35 kg) in the anterior descending or circumflex branches of the left coronary artery or in the right coronary artery (at a proportion of 3 stents per animal). The animals recover from the operation and are sent back to the animal house where they receive a normal diet supplemented with aspirin (325 mg/d). Blood samples of the animals are obtained at 6, 12, 24, 48 and 96 hours to determine the plasma levels of PAP and ShK. At 7 (n=4) or 28 days (n=8) the animals are euthanized after performing a coronary arteriography for the quantitative analysis. In one animal of each group (7 and 28 days), after euthanasia the coronary arteries are dissected, the stent is removed and the samples are frozen in liquid nitrogen in order to determine different markers by means of Western blot of the tissues and to determine the levels of PAP and ShK in the arterial wall. In the rest of the animals, immediately after euthanasia the hearts are collected and the coronary arteries are fixed by perfusion of formalin at 10% for 30 minutes.
Take `CC[C@H](C)[C@@H]1NC(=O)[C@@H](NC(=O)[C@H](CO)NC(=O)[C@@H](N)CCCNC(=N)N)CSSC[C@@H](C(=O)O)NC(=O)[C@H]([C@@H](C)O)NC(=O)CNC(=O)[C@@H]2CSSC[C@@H]3NC(=O)[C@H](CCC(N)=O)NC(=O)[C@H](Cc4ccccc4)NC(=O)[C@H](C)NC(=O)[C@H]([C@@H](C)O)NC(=O)[C@H](CSSC[C@H](NC(=O)[C@H](Cc4ccccc4)NC(=O)[C@H](CO)NC(=O)[C@H](CC(C)C)NC(=O)[C@H](CCCNC(=N)N)NC(=O)[C@H](Cc4ccc(O)cc4)NC(=O)[C@H](CCCCN)NC(=O)[C@H](CCSC)NC(=O)[C@H](CO)NC(=O)[C@H](Cc4cnc[nH]4)NC(=O)[C@H](CCCCN)NC3=O)C(=O)N[C@@H](CCCNC(=N)N)C(=O)N[C@@H](CCCCN)C(=O)N[C@@H]([C@@H](C)O)C(=O)N2)NC(=O)[C@H](CCCNC(=N)N)NC(=O)[C@H](CO)NC(=O)[C@H](CCCCN)NC(=O)[C@@H]2CCCN2C(=O)[C@H]([C@@H](C)CC)NC(=O)[C@H]([C@@H](C)O)NC(=O)[C@H](CC(=O)O)NC1=O` [ShK]: the level at 96 h was less than 0.2 ng/mL.

In another data set the target is Kv1.3 channel (Homo sapiens, UniProt P22001).
Chain of Kv1.3 channel (P22001 whole entry): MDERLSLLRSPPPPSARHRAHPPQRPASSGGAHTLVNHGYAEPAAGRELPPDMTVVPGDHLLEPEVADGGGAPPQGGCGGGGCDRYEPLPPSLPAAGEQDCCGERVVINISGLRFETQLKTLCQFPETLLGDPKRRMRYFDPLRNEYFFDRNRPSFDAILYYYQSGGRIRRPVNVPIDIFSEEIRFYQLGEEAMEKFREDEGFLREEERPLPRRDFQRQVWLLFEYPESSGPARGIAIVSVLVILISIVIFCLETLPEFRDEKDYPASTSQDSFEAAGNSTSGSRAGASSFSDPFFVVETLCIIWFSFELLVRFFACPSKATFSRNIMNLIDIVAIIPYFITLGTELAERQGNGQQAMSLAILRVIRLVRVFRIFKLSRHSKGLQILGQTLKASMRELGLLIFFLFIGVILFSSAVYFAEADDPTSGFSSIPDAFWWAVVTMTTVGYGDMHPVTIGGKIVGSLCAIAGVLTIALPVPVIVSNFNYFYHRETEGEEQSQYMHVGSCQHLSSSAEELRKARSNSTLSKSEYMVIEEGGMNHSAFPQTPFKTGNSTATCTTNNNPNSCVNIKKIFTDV
Assay: not given
The settings on record: Kv1.3 channel; read-out: Affinity (Kd); cited from earlier work.
As usually defined, the Kd is the equilibrium constant for the complex coming apart. `[Zn+2]` [Zn^2+]: the Kd was 200 µM.

Take Pandinus imperator toxin 3: the Kd is 0.0005 µM.

Regarding `[La+3]` [La^3+], the Kd was 20 µM.

In the case of trans-N-propyl-carbamoyloxy-PAC, the Kd is 0.05 µM.

Charybdotoxin: the Kd was 0.003 µM.

Turning to Hongotoxin, the Kd was 8.6e-05 µM.

For the compound Pandinus imperator toxin 2, the Kd is 5e-05 µM.

For the compound `COc1ccc([C@@H]2Sc3ccccc3N(CCN(C)C)C(=O)[C@@H]2OC(C)=O)cc1` [Diltiazem], the Kd was 27 µM.

Turning to “Noxiustoxin (TIINVKCTSPKQCSKPCKELYGSSAGAKCMNGKCKCYNN; UniProt P08815 1-39, looked up)”, the Kd was 0.001 µM.

As for `C=C[C@H]1C[N@@]2CC[C@H]1C[C@H]2[C@H](O)c1ccnc2ccc(OC)cc12` [Quinine], the Kd was 14 µM.

Turning to `COc1ccc(CCCN2CCC(COC(c3ccccc3)c3ccccc3)CC2)cc1` [UK78282], the Kd is 0.2 µM.

As to `C=C(C)[C@]12C[C@@H](C)[C@@]34O[C@](Cc5ccccc5)(O[C@@H]1[C@@H]3C=C(COC(=O)Cc1ccc(O)c(OC)c1)C[C@]1(O)C(=O)C(C)=C[C@@H]41)O2` [Resiniferatoxin], the Kd was 3 µM.

`CN1CCN(CCCN2c3ccccc3Sc3ccc(C(F)(F)F)cc32)CC1` [Trifluoperazine]: the Kd is 20 µM.

As to Pandinus imperator toxin 1, the Kd is 0.011 µM.

Turning to Buthus martensii Karsch toxin, the Kd is 0.00079 µM.

Regarding Parabuthus toxin 1, the Kd was 0.8 µM.

Regarding `c1ccc(C2(N3CCCCC3)CCCCC2)cc1` [Phencyclidine], the Kd is 5 µM.

As for `CC[N+](CC)(CC)CC` [TEA, tetraethylammonium chloride], the Kd is 10000 µM.

For `O=C(NCC1CCCCN1)c1cc(OCC(F)(F)F)ccc1OCC(F)(F)F` (stereo not shown) [Flecainide], the Kd was 60 µM.

As to `COc1cc(CNC(=O)CCCC/C=C/C(C)C)ccc1O` [Capsaicin], the Kd is 26 µM.

For the compound `[Hg+2]` [Hg^2+], the Kd is 10 µM.

Turning to Dendrotoxin, the Kd is 0.25 µM.

For `COC(=O)C1=C(C)NC(C)=C(C(=O)OC)C1c1ccccc1[N+](=O)[O-]` [Nifedipine], the Kd is 5 µM.

As for “Maurotoxin (VSCTGSKDCYAPCRKQTGCPNAKCINKSCKCYGC; UniProt P80719 1-34, looked up)”, the Kd is 0.15 µM.

Bunodosoma granulifera toxin: the Kd is 0.039 µM.

Turning to Kaliotoxin, the Kd is 0.00065 µM.

Regarding “Odonthobthus doriae toxin 2 [Odonthobthus doriae toxin 2 (OdK2)]”, the Kd is 0.007 µM.

On to Agiotoxin-2, for which the Kd is 0.0002 µM.

As to κ-Hefutoxin, the Kd was 40 µM.

On to Parabuthus toxin 3, for which the Kd is 0.492 µM.

Regarding “Stichodactyla helianthus toxin [Stichodactyla helianthus toxin (ShK)]”, the Kd was 1.1e-05 µM.

Turning to `CCOC(=O)C1=C(C)NC(C)=C(C(=O)OC)C1c1cccc([N+](=O)[O-])c1` (stereo not shown) [Nitrendipine], the Kd is 5 µM.

For the compound `CCC[C@@H](O)/C=C/C=C/C=C/C#CC#CCCCO` [Cicutotoxin], the Kd is 18 µM.

For `O=c1cc(-c2ccc(O)c(O)c2)oc2cc(O)cc(O)c12` [Luteolin], the Kd was 50 µM.

For Heterometrus spinifer toxin 1, the Kd was 1.2e-05 µM.

Titystoxin-Kα: the Kd was 0.004 µM.

Regarding “Stichodactyla helianthus toxin—fluorescein-6-carboxylic acid [ShK-F6CA]”, the Kd is 4.8e-05 µM.

On to `CC(=O)[C@H]1CC[C@H]2[C@@H]3CCC4=CC(=O)CC[C@]4(C)[C@H]3CC[C@]12C` [Progesterone], for which the Kd was 30 µM.

Turning to Margatoxin, the Kd is 0.00011 µM.

Regarding `[Co+2]` [Co^2+], the Kd is 200 µM.

Still in this data set, the particulars now being: read-out: Affinity (Kd); cited from earlier work.
As to `CCCCC/N=c1\ccn(Cc2ccccc2)c2ccccc12` [CP339818], the Kd was 0.15 µM.

As to `C=C1C[C@@]2(O)[C@@H]3CC[C@@]4(C)[C@@H]5C=CC(=O)OC[C@]5(C(C)OC(C)=O)[C@@H](OC(C)=O)[C@@H](OC(C)=O)[C@@H]4[C@@]3(C)[C@H](OC(C)=O)[C@H](OC(C)=O)[C@@]2(C)C2(C(=O)OC)O[C@H]12` (stereo partly shown) [Correolide], the Kd was 0.09 µM.
